From patent publication US6472526B1, “Imidazole derivatives having an inhibitory activity for farnesyl transferase and process for preparation thereof” (LG Chemical Ltd., priority 1997, dated 2002)
Each block holds one molecule with its values, some of them ahead of it.

Experiments:
[1] = molecular target: T1, Ras farnesyl transferase (Homo sapiens, UniProt P49354+P49356); assay: In vitro inhibitory activity for Ras farnesyl transferase, K-Ras substrate; format: biochemical; conditions: in vitro farnesyl transferase assay, K-Ras; read-out: K-Ras IC50
T1 construct: made in house

[2] = molecular target: T2, Ras farnesyl transferase (Rattus norvegicus, UniProt Q02293+Q04631); assay: In vivo (cellular) inhibitory activity for Ras farnesyl transferase, Rat2 cell line which expresses C-Harvey-Ras protein; format: cell-based; conditions: Rat2 cell line expressing C-Harvey-Ras; concentration inhibiting 50% of farnesyl bonding of Ras protein; read-out: H-Ras CIC50
T2 construct: endogenous in cells; host or cells: Rat2 fibroblasts transformed with H-Ras or with an H-Ras/K-Ras C-terminus fusion
Procedure, shortened: (§1)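 Farnesylated versus unfarnesylated Ras bands were measured by autoradiography after Y13-259 immunoprecipitation and SDS-PAGE, giving CIC50 as 50% inhibition of farnesylation. Rat2 cells expressing H-Ras or an H-Ras fusion with K-Ras polybasic C-terminus got compound (1% DMSO), then [35S]methionine from 4 h onward for 20 h.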

[3] = molecular target: T1, Ras farnesyl transferase; assay: In vitro inhibitory activity for Ras farnesyl transferase, H-Ras substrate; format: biochemical; conditions: recombinant farnesyl transferase 4.5 nM, Ras substrate protein 1.5 μM, tritium-farnesylpyrophosphate 0.15 μM, 30 minutes at 37° C.; read-out: H-Ras IC50
[4] = molecular target: T2, Ras farnesyl transferase; assay: In vivo (cellular) inhibitory activity for Ras farnesyl transferase, Rat2 cell line transformed with fused protein of H-Ras substituted with polybasic lysine domain at C-terminus of K-Ras; format: cell-based; conditions: Rat2 cell line transformed with H-Ras fused with polybasic lysine domain of K-Ras C-terminus; concentration inhibiting 50% of farnesyl bonding; read-out: K-Ras CIC50
Procedure, shortened: as §1

Molecule: N#Cc1ccc(CNC(=O)c2cn(Cc3c[nH]cn3)cc2-c2cccc3ccccc23)cc1 [Compound 98]
IC50 [1]: 100 to 10000 nM | IC50 [2]: 1000 to 50000 nM | IC50 [3]: 900 nM | IC50 [4]: 10000 to 100000 nM

Molecule: O=C(c1ccccc1)c1cn(Cc2c[nH]cn2)cc1-c1cccc2ccccc12 [Compound 46]
IC50 [1]: 100 to 10000 nM | IC50 [2]: 1000 to 50000 nM | IC50 [3]: 120 nM | IC50 [4]: 10000 to 100000 nM

Molecule: O=C(c1cn(Cc2c[nH]cn2)cc1-c1ccnc2ccccc12)N1CCOCC1 [Compound 96]
IC50 [1]: 100 to 10000 nM | IC50 [2]: 1000 to 50000 nM | IC50 [3]: 230 nM | IC50 [4]: 10000 to 100000 nM

Molecule: O=C(c1cn(Cc2c[nH]cn2)cc1-c1cccc2ccccc12)N1CCOCC1 [Compound 85]
IC50 [1]: 100 to 10000 nM | IC50 [2]: 4000 nM | IC50 [3]: 30 nM | IC50 [4]: > 50000 nM

Molecule: CSCC[C@H](NC(=O)c1cn(CCCc2c[nH]cn2)cc1-c1cccc2ccccc12)C(=O)O [Compound 108]
IC50 [1]: 100 to 10000 nM | IC50 [2]: 1000 to 50000 nM | IC50 [3]: 260 nM | IC50 [4]: 10000 to 100000 nM

Molecule: O=C(c1ccc(Cl)cc1)c1cn(Cc2c[nH]cn2)cc1-c1cccc2ccccc12 [Compound 56]
IC50 [1]: 100 to 10000 nM | IC50 [2]: 1000 to 50000 nM | IC50 [3]: 40 nM | IC50 [4]: 10000 to 100000 nM

Molecule: O=C(c1cccc(Br)c1)c1cn(Cc2c[nH]cn2)cc1-c1cccc2ccccc12 [Compound 48]
IC50 [1]: 10000 nM | IC50 [2]: 1000 to 50000 nM | IC50 [3]: 150 nM | IC50 [4]: 10000 to 100000 nM

Molecule: COC(=O)c1sc(Cc2cncn2Cc2ccc(Cl)cc2)nc1-c1cccc2ccccc12 [Compound 148]
IC50 [1]: > 50000 nM | IC50 [2]: 30000 nM | IC50 [3]: 1700 nM | IC50 [4]: > 50000 nM

Molecule: CSCCc1ccc(C(=O)c2cn(Cc3c[nH]cn3)cc2-c2cccc3ccccc23)cc1 [Compound 62]
IC50 [1]: 100 to 10000 nM | IC50 [2]: 1000 to 50000 nM | IC50 [3]: 68 nM | IC50 [4]: 10000 to 100000 nM

Molecule: 1-[1-(4-Methoxybenzyl)-1H-imidazol-5-yl]methyl-3-[N-(2-methoxyethyl)-N-methyl]carbamoyl-4-(naphthalen-1-yl)-1H-pyrrole [Compound 129]
IC50 [1]: 4 nM | IC50 [2]: 25 nM | IC50 [3]: 3 nM | IC50 [4]: 10000 to 50000 nM

Molecule: O=C(c1ccsc1)c1cn(Cc2c[nH]cn2)cc1-c1cccc2ccccc12 [Compound 45]
IC50 [1]: 100 to 10000 nM | IC50 [2]: 1000 to 50000 nM | IC50 [3]: 130 nM | IC50 [4]: 10000 to 100000 nM

Molecule: COC(=O)[C@H](CCSC)NC(=O)c1cn(Cc2c[nH]cn2)cc1-c1cccc2ccccc12 [Compound 80, (S)-1-(1H-Imidazol-4-yl)methyl-3-[N-(1-methoxycarbonyl-3-methylthio)propyl]carbamoyl-4-(naphthalen-1-yl)-1H-pyrrole]
IC50 [1]: 100 to 10000 nM | IC50 [2]: 1000 to 50000 nM | IC50 [3]: 8210 nM | IC50 [4]: 10000 to 100000 nM

Molecule: O=C(NCc1ccccc1)c1cn(Cc2c[nH]cn2)cc1-c1cccc2ccccc12 [Compound 83]
IC50 [1]: 18500 nM | IC50 [2]: 1000 to 50000 nM | IC50 [3]: 260 nM | IC50 [4]: 10000 to 100000 nM

Molecule: CSCCOc1ccc(C(=O)c2cn(Cc3c[nH]cn3)cc2-c2cccc3ccccc23)cc1 [Compound 63]
IC50 [1]: 100 to 10000 nM | IC50 [2]: 1000 to 50000 nM | IC50 [3]: 230 nM | IC50 [4]: 10000 to 100000 nM

Molecule: Cc1ccccc1C(=O)c1cn(Cc2c[nH]cn2)cc1-c1cccc2ccccc12 [Compound 50]
IC50 [1]: 100 to 10000 nM | IC50 [2]: 1000 to 50000 nM | IC50 [3]: 150 nM | IC50 [4]: 10000 to 100000 nM

Molecule: O=C(Nc1ccccc1)c1cn(Cc2c[nH]cn2)cc1-c1cccc2ccccc12 [Compound 82]
IC50 [1]: 100 to 10000 nM | IC50 [2]: 1000 to 50000 nM | IC50 [3]: 400 nM | IC50 [4]: 10000 to 100000 nM

More lines, in order of falling IC50 [1], values ahead:

IC50 [1]: 200 nM | IC50 [2]: 100 nM | IC50 [3]: 4.5 nM | IC50 [4]: 10000 to 100000 nM
Molecule: Cn1cnc(Cn2cc(C(=O)c3ccc(F)cc3)c(-c3cccc4ccccc34)c2)c1 [Compound 78, 3-(4-Fluorobenzoyl)-1-(1-methyl-1H-imidazol-4-yl)methyl-4-(naphthalen-1-yl)-1H-pyrrole]

IC50 [1]: 90 nM | IC50 [2]: 50 nM | IC50 [3]: 0.4 nM | IC50 [4]: > 50000 nM
Molecule: CN1CCN(C(=O)c2cn(Cc3cncn3Cc3ccc(C#N)cc3)cc2-c2cccc3ccccc23)CC1 [Compound 105]

IC50 [1]: 70 nM | IC50 [2]: 100 nM | IC50 [3]: 7 nM | IC50 [4]: 25000 nM
Molecule: COC(=O)c1nc(Cc2cncn2Cc2ccc(Cl)cc2)sc1-c1cccc2ccccc12 [Compound 145, 2-[1-(4-Chlorobenzyl)-1H-imidazol-5-ylmethyl]-4-methoxycarbonyl-5-(naphthalen-1-yl)thiazole]

IC50 [1]: 35 nM | IC50 [2]: 25 nM | IC50 [3]: 2 nM | IC50 [4]: < 50000 nM
Molecule: COCCN(C)C(=O)c1cn(Cc2cncn2CC(C)C)cc1-c1cccc2ccccc12 [Compound 115, 1-(1-Isobutyl-1H-imidazol-5-yl)methyl-3-[N-(2-methoxyethyl)-N-methyl]carbamoyl-4-(naphthalen-1-yl)-1H-pyrrole]

IC50 [1]: 20 nM | IC50 [2]: 200 nM | IC50 [3]: 2 nM | IC50 [4]: > 10000 nM
Molecule: N#Cc1ccc(Cn2cncc2Cn2cc(C(=O)c3cccs3)c(-c3cccc4ccccc34)c2)cc1 [Compound 73, 1-[1-(4-Cyanobenzyl)-1H-imidazol-5-yl]methyl-4-(naphthalen-1-yl)-3-(thiophen-2-yl)carbonyl-1H-pyrrole]

IC50 [1]: 10 nM | IC50 [2]: 10 nM | IC50 [3]: 2 nM | IC50 [4]: 5000 nM
Molecule: CN1CCN(C(=O)c2cn(Cc3cncn3Cc3ccc(F)cc3)cc2-c2cccc3ccccc23)CC1 [Compound 128, 1-[1-(4-fluorobenzyl)-1H-imidazol-5-yl]methyl-3-[4-methylpiperazin-1-yl]carbonyl-4-(naphthalen-1-yl)-1H-pyrrole]

IC50 [1]: 5 nM | IC50 [2]: 12.5 nM | IC50 [3]: 0.85 nM | IC50 [4]: 10000 to 50000 nM
Molecule: CC(c1ccccc1)n1cncc1Cn1cc(C(=O)N2CCN(C)CC2)c(-c2cccc3ccccc23)c1 (stereo in doubt) [Compound 10, 1-[1-((R)-α-Methylbenzyl)-1H-imidazol-5-ylmethyl]-3-(4-methylpiperazin-1-yl)carbonyl-4-(naphthalen-1-yl)-1H-pyrrole]

IC50 [1]: 5 nM | IC50 [2]: 12.5 nM | IC50 [3]: 1.2 nM | IC50 [4]: 10000 to 50000 nM
Molecule: CN1CCN(C(=O)c2cn(Cc3cncn3CCc3ccccc3)cc2-c2cccc3ccccc23)CC1 [Compound 16, 3-(4-Methylpiperazin-1-yl)carbonyl-4-(naphthalen-1-yl)-1-[1-(phenethyl)-1H-imidazol-5-ylmethyl)-1H-pyrrole]

IC50 [1]: 4 nM | IC50 [2]: 6 nM | IC50 [3]: 2 nM | IC50 [4]: 4000 nM
Molecule: CN1CCN(C(=O)c2cn(Cc3cncn3Cc3ccc(Br)cc3)cc2-c2cccc3ccccc23)CC1 [Compound 125, 1-[1-(4-Bromobenzyl)-1H-imidazol-5-yl]methyl-3-[4-methylpiperazin-1-yl]carbonyl-4-(naphthalen-1-yl)-1H-pyrrole]

IC50 [1]: 3 nM | IC50 [2]: 15 nM | IC50 [3]: 4 nM | IC50 [4]: 10000 to 50000 nM
Molecule: CN1CCN(C(=O)c2cn(Cc3cncn3CCc3ccc4ccccc4c3)cc2-c2cccc3ccccc23)CC1 [Compound 42, 3-[4-Methylpiperazin-1-yl]carbonyl-4-(naphthalen-1-yl)-1-{1-[2-(naphthalen-2-yl)ethyl]-1H-imidazol-5-yl}methyl-1H-pyrrole]

IC50 [1]: 3 nM | IC50 [2]: 20 nM | IC50 [3]: 1 nM | IC50 [4]: 10000 to 50000 nM
Molecule: COCCN(C)C(=O)c1cn(Cc2cncn2CCc2ccc(OC)cc2)cc1-c1cccc2ccccc12 [Compound 19, 3-[N-(2-Methoxyethyl)-N-methyl]carbamoyl-1-[1-(4-methoxy)phenethyl-1H-imidazol-5-yl]methyl-4-(naphthalen-1-yl)-1H-pyrrole]

IC50 [1]: 3 nM | IC50 [2]: 25 nM | IC50 [3]: 2 nM | IC50 [4]: 10000 to 50000 nM
Molecule: COCCN(C)C(=O)c1cn(Cc2cncn2CCc2ccccc2OC)cc1-c1cccc2ccccc12 [Compound 17, 3-[N-(2-Methoxyethyl)-N-methyl]carbamoyl-1-[1-(2-methoxy)phenethyl-1H-imidazol-5-yl]methyl-4-(naphthalen-1-yl)-1H-pyrrole]

IC50 [1]: 3 nM | IC50 [2]: 15 nM | IC50 [3]: 2 nM | IC50 [4]: 10000 to 50000 nM
Molecule: CN1CCN(C(=O)c2cn(Cc3cncn3CCc3cccc4ccccc34)cc2-c2cccc3ccccc23)CC1 [Compound 32, 3-[4-Methylpiperazin-1-yl]carbonyl-4-(naphthalen-1-yl)-1-{1-[2-(naphthalen-1-yl)ethyl]-1H-imidazol-5-yl}methyl-1H-pyrrole]

IC50 [1]: 2.1 nM | IC50 [2]: 20 nM | IC50 [3]: 1.7 nM | IC50 [4]: 10000 to 20000 nM
Molecule: Cc1ccc(Cn2cncc2Cn2cc(C(=O)N3CCOCC3)c(-c3cccc4ccccc34)c2)cc1 [Compound 137]

IC50 [1]: 2 nM | IC50 [2]: 25 nM | IC50 [3]: 0.85 nM | IC50 [4]: 10000 to 50000 nM
Molecule: O=C(c1cn(Cc2cncn2Cc2ccc3c(c2)OCO3)cc1-c1cccc2ccccc12)N1CCOCC1 [Compound 2, 1-[1-(3,4-Methylenedioxybenzyl)-1H-imidazol-5-ylmethyl]-3-(morpholin-4-yl)carbonyl-4-(naphthalen-1-yl)-1H-pyrrole]

IC50 [1]: 2 nM | IC50 [2]: 25 nM | IC50 [3]: 1 nM | IC50 [4]: 10000 to 50000 nM
Molecule: COc1ccccc1CCn1cncc1Cn1cc(C(=O)N2CCN(C)CC2)c(-c2cccc3ccccc23)c1 [Compound 18, 1-[1-(2-Methoxy)phenethyl-1H-imidazol-5-yl]methyl-3-[4-methylpiperazin-1-yl]carbonyl-4-(naphthalen-1-yl)-1H-pyrrole]
